Measured values reported in patent US20100056596A1, “RESISTANCE-REPELLENT RETROVIRAL PROTEASE INHIBITORS” (Sequoia Pharmaceuticals, priority 2004, published 2010).
Like-named read-outs stand apart in the source and are kept apart here.

What was measured:
HIV-1 protease Mutant 9 = HIV-1 protease Mutant 9 (Human immunodeficiency virus type 1, UniProt P04585); assay: Ki against HIV-1 protease Mutant 9; assay type: biochemical
HIV-1 isolates, WT = assay: In vitro drug sensitivity of HIV-1 laboratory isolates, WT; assay type: cell-based
Method: (§1) In Vitro Drug Sensitivity of HIV-1 Laboratory Isolates to PIs
(§2) The sensitivities of HIV-1 isolates against compounds of the invention were determined as previously described with minor modifications (Shiraska et al., Proc. Natl. Acad. Sci. USA, 92, 2398-2402 (1995)).

HIV-1 isolates, Mutant 9 = assay: In vitro drug sensitivity of HIV-1 laboratory isolates, Mutant 9; assay type: cell-based
Method: as §1, §2

wild type HIV-1 protease = target: T1, wild type HIV-1 protease (Human immunodeficiency virus type 1 group M subtype B, UniProt P04585); assay: Ki against wild type (WT) HIV-1 protease; assay type: biochemical
T1 construct: over 45 of the 99 amino acids of the HIV protease monomer

HIV-1 protease Mutant 8 = HIV-1 protease Mutant 8 (Human immunodeficiency virus type 1, UniProt P04585); assay: Ki against HIV-1 protease Mutant 8; assay type: biochemical
HIV-1 isolates, Mutant 8 = assay: In vitro drug sensitivity of HIV-1 laboratory isolates, Mutant 8; assay type: cell-based
Method: as §1, §2

[1] = Human immunodeficiency virus 1, HIV-1 isolate WT
[2] = Human immunodeficiency virus 1, read-out: IC50 Mutant 9
[3] = Human immunodeficiency virus 1, read-out: IC50 Mutant 8
[4] = Mutant 9, read-out: IC50 Mutant 9
[5] = Mutant 8, read-out: IC50 Mutant 8

Compound | Ki (HIV-1 protease Mutant 9; HIV-1 protease Mutant 9) [nM] | IC50 (HIV-1 isolates, WT; [1]) [nM] | IC50 (HIV-1 isolates, Mutant 9; [2]) [nM] | Ki (wild type HIV-1 protease; wild type HIV-1 protease) [nM] | Ki (HIV-1 protease Mutant 8; HIV-1 protease Mutant 8) [nM] | IC50 (HIV-1 isolates, Mutant 8; [3]) [nM] | Ki (HIV-1 protease Mutant 9; Mutant 9) [nM] | IC50 (HIV-1 isolates, WT; Human immunodeficiency virus 1) [nM] | Ki (wild type HIV-1 protease; WT) [nM] | Ki (HIV-1 protease Mutant 8; Mutant 8) [nM] | IC50 (HIV-1 isolates, WT; WT) [nM] | IC50 (HIV-1 isolates, Mutant 9; [4]) [nM] | IC50 (HIV-1 isolates, Mutant 8; [5]) [nM]
CCS(=O)(=O)NCc1noc2ccc(S(=O)(=O)N(CC(C)C)CC(O)C(Cc3ccccc3)NC(=O)OC3COC4OCCC34)cc12 (stereo not drawn) [Compound 223] | 0.26 | 9 | 60 | < 0.1 | < 0.3 | 11 |  |  |  |  |  |  | 
Cc1cc2cc(S(=O)(=O)N(CC(C)C)CC(O)C(Cc3ccccc3)NC(=O)OC3COC4OCCC34)ccc2o1 (stereo not drawn) [Compound 102] |  |  | > 400 |  |  | 90 | 0.96 | 3.7 | < 0.1 | < 0.3 |  |  | 
CC(C)CN(CC(O)C(Cc1ccccc1)NC(=O)OC1COC2OCCC12)S(=O)(=O)c1ccc2onc(CSCC(F)(F)F)c2c1 (stereo not drawn) [Compound 233] | 3.4 | 4 | > 400 | < 0.1 | < 0.3 | 36 |  |  |  |  |  |  | 
CC(C)CN(C[C@@H](O)[C@H](Cc1ccccc1)NC(=O)OC1COC2OCCC12)S(=O)(=O)c1ccc2occ(CN3CCOCC3)c2c1 (stereo partly drawn) [Compound 108] |  |  |  |  |  |  | 1.5 |  | < 0.1 | < 0.3 | 1.5 | 420 | 38
CC(C)CN(C[C@@H](O)[C@H](Cc1ccccc1)NC(=O)OC1CO[C@H]2OCC[C@@H]12)S(=O)(=O)c1ccc2c(c1)CCO2 (stereo partly drawn) |  |  | 157 |  |  | 13 | 1.5 | 1 | < 0.1 | < 0.3 |  |  | 
CC(C)CN(CC(O)C(Cc1ccccc1)NC(=O)OC1COC2OCCC12)S(=O)(=O)c1ccc2onc(CNC(=O)c3ccco3)c2c1 (stereo not drawn) [Compound 240] | 0.26 | 6.5 | 20 | < 0.1 | < 0.3 | 11 |  |  |  |  |  |  | 
CCC(=O)NCc1coc2ccc(S(=O)(=O)N(CC(C)C)C[C@@H](O)[C@H](Cc3ccccc3)NC(=O)OC3COC4OCCC34)cc12 (stereo partly drawn) [Compound 113] |  |  |  |  |  |  | < 0.1 |  | < 0.1 | < 0.3 | 7 | 50 | 20
CC(C)CN(CC(O)C(Cc1ccccc1)NC(=O)OC1COC2OCCC12)S(=O)(=O)c1ccc2onc(CN(C)S(C)(=O)=O)c2c1 (stereo not drawn) [Compound 210] | 1.3 | 3 | 300 | < 0.1 | < 0.3 | 51 |  |  |  |  |  |  | 
CC(=O)OCc1coc2ccc(S(=O)(=O)N(CC(C)C)CC(O)C(Cc3ccccc3)NC(=O)OC3COC4OCCC34)cc12 (stereo not drawn) [Compound 122] |  |  | 110 |  |  | 11 | 0.27 | 5.9 | < 0.1 | < 0.3 |  |  | 
CC(C)CN(CC(O)C(Cc1ccccc1)NC(=O)OC1COC2OCCC12)S(=O)(=O)c1ccc2onc(CN)c2c1 (stereo not drawn) [Compound 203] | 0.71 | 22 | 120 | < 0.1 | < 0.3 | 70 |  |  |  |  |  |  | 
CC(C)CN(CC(O)C(Cc1ccccc1)NC(=O)OC1COC2OCCC12)S(=O)(=O)c1ccc2onc(CNCCOc3ccccc3)c2c1 (stereo not drawn) [Compound 230] | 0.14 | 4.8 | 57 | < 0.1 | < 0.3 | 20 |  |  |  |  |  |  | 
CC(C)CN(CC(O)C(Cc1ccccc1)NC(=O)OC1COC2OCCC12)S(=O)(=O)c1ccc2onc(CO)c2c1 (stereo not drawn) [Compound 213] | 0.15 | 7 | 55 | < 0.1 | < 0.3 | 30 |  |  |  |  |  |  | 
